These results are taken from ChEMBL document CHEMBL1145304 (Bioorg Med Chem Lett, 2006).

Experiment [1] concerns the target Sodium-dependent noradrenaline transporter (Homo sapiens, UniProt P23975).
Description: Inhibition of [3H]NA reuptake at NA transporter in HEK293 cells
Experiment [2] addresses Sodium-dependent serotonin transporter (Homo sapiens, UniProt P31645). The class given is cell-based, HEK293.
Experiment [3] deals with Sodium-dependent dopamine transporter (Homo sapiens, UniProt Q01959).
Sequence of Sodium-dependent dopamine transporter (Q01959 whole entry): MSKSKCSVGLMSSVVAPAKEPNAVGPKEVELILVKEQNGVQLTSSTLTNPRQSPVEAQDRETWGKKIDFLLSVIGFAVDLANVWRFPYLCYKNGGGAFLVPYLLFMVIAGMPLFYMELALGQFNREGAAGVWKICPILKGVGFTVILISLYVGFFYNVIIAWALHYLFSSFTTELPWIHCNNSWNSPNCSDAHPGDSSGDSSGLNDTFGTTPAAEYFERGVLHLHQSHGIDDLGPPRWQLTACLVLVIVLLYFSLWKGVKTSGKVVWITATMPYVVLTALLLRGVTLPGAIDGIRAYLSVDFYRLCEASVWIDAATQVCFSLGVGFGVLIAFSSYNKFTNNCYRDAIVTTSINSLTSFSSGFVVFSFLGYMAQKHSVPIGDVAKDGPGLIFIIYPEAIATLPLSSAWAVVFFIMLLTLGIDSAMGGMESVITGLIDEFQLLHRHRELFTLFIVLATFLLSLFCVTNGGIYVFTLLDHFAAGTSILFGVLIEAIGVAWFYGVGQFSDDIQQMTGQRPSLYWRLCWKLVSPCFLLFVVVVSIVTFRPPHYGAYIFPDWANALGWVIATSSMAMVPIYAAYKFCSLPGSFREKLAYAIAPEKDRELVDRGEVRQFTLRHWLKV
Description: Inhibition of [3H]DA reuptake at DA transporter in HEK293 cells

Sequence of Sodium-dependent serotonin transporter (P31645 whole entry): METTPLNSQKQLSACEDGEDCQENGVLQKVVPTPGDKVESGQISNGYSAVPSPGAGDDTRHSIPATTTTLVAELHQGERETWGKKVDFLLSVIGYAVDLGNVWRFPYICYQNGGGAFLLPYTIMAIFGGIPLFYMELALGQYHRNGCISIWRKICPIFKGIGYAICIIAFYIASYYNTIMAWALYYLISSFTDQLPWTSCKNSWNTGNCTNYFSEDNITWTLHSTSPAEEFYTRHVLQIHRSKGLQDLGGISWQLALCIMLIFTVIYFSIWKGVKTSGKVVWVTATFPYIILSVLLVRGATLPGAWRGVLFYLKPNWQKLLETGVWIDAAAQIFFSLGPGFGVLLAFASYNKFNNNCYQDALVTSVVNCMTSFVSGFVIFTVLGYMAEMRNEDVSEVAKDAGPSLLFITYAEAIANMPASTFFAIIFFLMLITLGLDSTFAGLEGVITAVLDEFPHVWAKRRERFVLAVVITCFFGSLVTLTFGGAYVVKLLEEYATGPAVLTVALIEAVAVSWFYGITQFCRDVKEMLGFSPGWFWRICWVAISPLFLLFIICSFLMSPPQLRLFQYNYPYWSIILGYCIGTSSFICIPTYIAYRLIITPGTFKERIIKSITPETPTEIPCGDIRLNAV
Sequence of Sodium-dependent noradrenaline transporter (P23975 whole entry): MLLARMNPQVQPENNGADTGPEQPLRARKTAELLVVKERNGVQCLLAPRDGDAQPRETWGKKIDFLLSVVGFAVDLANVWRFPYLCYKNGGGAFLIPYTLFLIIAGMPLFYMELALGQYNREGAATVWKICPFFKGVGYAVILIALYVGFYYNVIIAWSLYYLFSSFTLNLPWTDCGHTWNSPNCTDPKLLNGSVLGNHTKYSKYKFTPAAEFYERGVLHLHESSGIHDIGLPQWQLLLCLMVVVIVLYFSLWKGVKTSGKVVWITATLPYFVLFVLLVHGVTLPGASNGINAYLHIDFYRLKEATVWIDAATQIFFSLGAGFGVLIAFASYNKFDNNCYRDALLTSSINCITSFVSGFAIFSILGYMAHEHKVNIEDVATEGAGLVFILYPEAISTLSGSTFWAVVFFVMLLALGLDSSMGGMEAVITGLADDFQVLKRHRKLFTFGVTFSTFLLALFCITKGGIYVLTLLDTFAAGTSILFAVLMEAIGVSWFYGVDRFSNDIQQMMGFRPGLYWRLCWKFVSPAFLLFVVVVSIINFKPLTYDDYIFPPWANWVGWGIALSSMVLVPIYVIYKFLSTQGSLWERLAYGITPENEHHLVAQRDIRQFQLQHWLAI

On to `c1ccc(CCC(c2ccccc2)N2CCNCC2)cc1` (centres undefined), for which the results for the IC50 in experiment [1] and in experiment [2] were above 400 nM and 23 nM, respectively.
Take `CCOc1ccccc1CC(c1nccs1)N1CCNCC1` (centres undefined): the values for the IC50 in experiment [1] and in experiment [2] were 340 nM and 39 nM, respectively.
On to `Clc1ccccc1CC(c1ccccc1)N1CCCNCC1` (centres undefined), for which the results for the IC50 in experiment [1] and in experiment [2] were 76 nM and 42 nM, respectively.
Taken in the same sequence, the figures for `c1ccc(C(Cc2cccc3ccccc23)N2CCNCC2)cc1` (centres undefined) were above 400 nM and 12 nM.
Regarding `CCOc1ccccc1CC(c1cccnc1)N1CCNCC1` (centres undefined), the IC50 in experiment [1] was 15 nM; in experiment [2], 46 nM; in experiment [3], above 4000 nM.
`CCOc1ccccc1CC(c1cncs1)N1CCNCC1` (centres undefined): the IC50 in experiment [1] is 21 nM; in experiment [2], 40 nM.
Take `CCOc1ccccc1CC(c1ccccc1)N1CCCNCC1` (centres undefined): the IC50 stood at 8.8 nM in experiment [1] and 300 nM in experiment [2].
As for `c1ccc(C(Cc2ccncc2)N2CCNCC2)cc1` (centres undefined), the values for the IC50 in experiment [1] and in experiment [2] were above 400 nM and 38 nM, respectively.
For the compound `c1ccc(C(Cc2ccccn2)N2CCNCC2)cc1` (centres undefined), the IC50 in experiment [1] was above 400 nM; in experiment [2], 230 nM.
Consider `Clc1ccccc1CC(c1cncs1)N1CCNCC1` (centres undefined), for which the IC50 was 120 nM in experiment [1] and 12 nM in experiment [2].
As to `Clc1ccccc1CC(c1cccnc1)N1CCNCC1` (centres undefined), the IC50 in experiment [1] came out at 75 nM; in experiment [2], 14 nM; in experiment [3], 9200 nM.
`c1ccc(CCC(Cc2ccccc2)N2CCNCC2)cc1` (centres undefined): the IC50 in experiment [1] amounted to 48 nM; in experiment [2] it was 23 nM; in experiment [3] it was 400 nM.
Regarding `c1ccc(C(Cc2ccc3ccccc3c2)N2CCNCC2)cc1` (centres undefined), the IC50 is above 400 nM in experiment [1] and 17 nM in experiment [2].
